Data on eleven compounds can be found in US9624209B2, “Substituted phenylureas and phenylamides as vanilloid receptor ligands” (Gruenenthal GmbH, priority 2009, dated 2017).

Assay [1] has as its target T1, vanilloid receptor 1 (VR1/TRPV1 receptor) (Homo sapiens, UniProt Q8NER1).
T1 construct: expressed in transfected cells; host or cells: CHO K1 cells (ECACC), stably transfected
As to the kind of experiment: VR1/TRPV1 receptor affinity, NADA stimulus (human). In kind it is cell-based. Conditions: N-arachidonoyl dopamine; read-out: Ki (human being) [nM] NADA.

Assay [2] has as its target T1, vanilloid receptor 1 (VR1/TRPV1 receptor). As to the kind of experiment: VR1 inhibition, 45° C. heat stimulus (human). Format: cell-based, human being. Details: key to IC50 (human being) [nM], 45° C.: result in words: AG=agonist; pAG=partial agonist; NE=no effect.
Assay [3] shares this target. As to the kind of experiment: VR1/TRPV1 receptor affinity, capsaicin stimulus (human). As to conditions: Tables 8-12, read-out: (f) Ki (human being) [nM] Cap. Format: cell-based, human being.

T1 sequence (Q8NER1 whole entry): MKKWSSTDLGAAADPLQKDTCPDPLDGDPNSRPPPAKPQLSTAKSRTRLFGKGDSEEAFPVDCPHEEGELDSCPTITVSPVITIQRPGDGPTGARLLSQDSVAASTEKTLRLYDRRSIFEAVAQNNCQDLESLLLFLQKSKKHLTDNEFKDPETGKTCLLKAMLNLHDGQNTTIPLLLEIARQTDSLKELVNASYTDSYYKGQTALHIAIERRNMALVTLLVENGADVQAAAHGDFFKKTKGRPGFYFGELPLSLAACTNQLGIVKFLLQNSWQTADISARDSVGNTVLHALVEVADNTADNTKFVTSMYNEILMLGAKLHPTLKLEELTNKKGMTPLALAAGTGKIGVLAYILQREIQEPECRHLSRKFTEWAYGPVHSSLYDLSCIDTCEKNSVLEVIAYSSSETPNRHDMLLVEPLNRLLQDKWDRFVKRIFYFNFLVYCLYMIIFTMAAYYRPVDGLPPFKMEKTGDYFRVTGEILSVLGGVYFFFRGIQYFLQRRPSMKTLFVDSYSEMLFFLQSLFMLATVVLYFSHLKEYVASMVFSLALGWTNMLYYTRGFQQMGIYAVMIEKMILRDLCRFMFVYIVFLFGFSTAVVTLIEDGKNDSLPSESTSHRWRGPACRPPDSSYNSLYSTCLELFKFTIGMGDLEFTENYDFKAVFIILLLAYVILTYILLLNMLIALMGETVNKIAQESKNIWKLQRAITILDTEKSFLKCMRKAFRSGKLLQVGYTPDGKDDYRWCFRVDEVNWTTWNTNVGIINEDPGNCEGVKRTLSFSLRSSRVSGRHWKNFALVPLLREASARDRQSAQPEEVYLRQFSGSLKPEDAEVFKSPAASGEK

Usually Ki stands for a dissociation constant, usually derived from enzyme kinetics or from competition with a known ligand. Take `CCCCCCn1nc(C(C)(C)C)cc1CNC(=O)C(C)c1ccc(NS(C)(=O)=O)c(F)c1` (centres unmarked) [Example 5, N-((3-tert-butyl-1-hexyl-1H-pyrazol-5-yl)methyl)-2-(3-fluoro-4-(methylsulfonamido)phenyl)propanamide]: the Ki in assay [1] was found to be 4.99 nM.

`CC(C(=O)NCc1cc(C(C)(C)C)nn1-c1ccc(F)c(Cl)c1)c1ccc(NS(C)(=O)=O)c(F)c1` (centres unmarked) [Example 18, N-((3-tert-butyl-1-(3-chloro-4-fluorophenyl)-1H-pyrazol-5-yl)methyl)-2-(3-fluoro-4-(methylsulfonamido)phenyl)propanamide]: the Ki in assay [1] came to 0.22 nM.

As to `CC(C(=O)NCc1cc(C(C)(C)C)nn1-c1cccc(Cl)c1)c1cc(F)c(NS(C)(=O)=O)c(F)c1` (centres unmarked) [Example 29, N-((3-tert-butyl-1-(3-chlorophenyl)-1H-pyrazol-5-yl)methyl)-2-(3,5-difluoro-4-(methylsulfonamido)phenyl)propanamide], the Ki in assay [1] came to 0.08 nM.

On to `CC(C(=O)NCc1cc(C(C)(C)C)nn1-c1cccc(Cl)c1)c1ccc(S(=O)(=O)N(C)C)c(F)c1` (centres unmarked) [Example 56, N-((3-tert-butyl-1-(3-chlorophenyl)-1H-pyrazol-5-yl)methyl)-2-(4-(N,N-dimethylsulfamoyl)-3-fluorophenyl)propanamide], for which, in assay [2], the “IC50 (human being) [nM], 45° C.: result in words” value is listed as “AG”.

In general, IC50 refers to the concentration that inhibits the measured activity by half. For `Cc1c(C(F)(F)F)nn(-c2cccc(Cl)c2)c1CNC(=O)C(C)c1ccc(CNS(C)(=O)=O)c(F)c1` (centres unmarked) [Example 134, N-((1-(3-chlorophenyl)-4-methyl-3-(trifluoromethyl)-1H-pyrazol-5-yl)methyl)-2-(3-fluoro-4-(methylsulfonamid-methyl)phenyl)propanamide], the IC50 in assay [2] (read-out: IC50 (human being) [nM], 45° C.) worked out at 546 nM.

As to `O=Cc1ccc(NC(=O)NCc2cc(C(F)(F)F)nn2-c2cccc(Cl)c2)cc1F` [Example E61, 1-((1-(3-chlorophenyl)-3-(trifluoromethyl)-1H-pyrazol-5-yl)methyl)-3-(3-fluoro-4-formylphenyl)urea], the Ki in assay [3] came to 23 nM.

Take “N-(3-Chlorophenyl)-4-[1-[[2-(3-chlorophenyl)-5-(trifluoromethyl)-2H-pyrazol-3-yl]-methyl-carbamoyl]-ethyl]-benzamide [Example E32]”: the Ki in assay [3] is 48 nM.

With “N-(4-Chlorophenyl)-4-[1-[[2-(3-chlorophenyl)-5-(trifluoromethyl)-2H-pyrazol-3-yl]-methyl-carbamoyl]-ethyl]-2-fluoro-benzamide [Example E46]”, the Ki in assay [3] came out at 2 nM.

With “N-(4-Chlorophenyl)-4-[1-[[2-(3-chlorophenyl)-5-(trifluoromethyl)-2H-pyrazol-3-yl]-methyl-carbamoyl]-ethyl]-benzamide [Example E33]”, the inhibition constant (Ki) in assay [3] was found to be 6 nM.

For the compound “N-[[2-(3-Chlorophenyl)-5-cyclopropyl-2H-pyrazol-3-yl]-methyl]-2-[3-fluoro-4-(methanesulfonamido-methyl)-phenyl]-propionamide [Example B4]”, the Ki in assay [3] worked out at 61 nM.

On to “N-[[4-[[[5-tert-Butyl-2-(3-chlorophenyl)-2H-pyrazol-3-yl]-methyl-carbamoyl]amino]-2-fluoro-phenyl]-methyl]-acetamide [Example B34]”, for which the inhibition constant (Ki) in assay [3] is 15 nM.
